From article PMC13355314, “Charged molecular glue discovery enabled by targeted degron display” (Nature Chemical Biology, 2026)
Where “and” joins values, the source holds several entries; their conditions need not be identical. Identical values can stand only once. Entries after “also recorded” stand apart in the source; their conditions may differ.

Tests used:
*BRD4BD1 / YPEL5-CTLH E3 = target: T1, *BRD4BD1 / YPEL5-CTLH E3 (Homo sapiens, UniProt O60885+P62699); assay: In vitro ubiquitylation assay (YPEL5-CTLH E3, UBE2H); type: biochemical; conditions: YPEL5-CTLH E3-dependent
T1 construct: fluorescent BRD4 bromodomain substrates, either in isolation (BRD4BD1 and BRD4BD2) or in tandem (BRD4BD1+BD2); GST (N, cleaved yes); made in house; host or cells: CTLH E3 and UBA1: High Five insect cells; BRD4BD1, UBE2H, ubiquitin: E. coli BL21 (DE3) RIL
Protocol: All ubiquitylation assays were performed at room temperature in the final reaction buffer containing 25 mM HEPES pH 7.5, 150 mM NaCl, 0.25 mM DTT, 5 mM ATP and 10 mM MgCl2. Samples at indicated time points were quenched by mixing an aliquot of the total reaction mixture with a reducing Laemmli buffer and subjected to SDS–PAGE. Substrate ubiquitylation was visualized by a fluorescence scan of SDS–PAGE gels using the Amersham Typhoon Imager 600 (GE Healthcare).
The mixture was incubated at room temperature for 1 h and supplemented with 0.2 μM E1 UBA1 and 20 μM ubiquitin to initiate the reaction.

[1] = target: T2, FAM–BRD4BD1 + YPEL5–WDR26 module (Homo sapiens, UniProt O60885+P62699); assay: FP assay quantifying ternary complex formation; conditions: *BRD4BD1 binding to YPEL5–WDR26 upon degrader titration
T2 construct: fluorescent BRD4 bromodomain substrates, either in isolation (BRD4BD1 and BRD4BD2) or in tandem (BRD4BD1+BD2); GST (N, cleaved yes); made in house; host or cells: BRD4BD1: E. coli BL21 (DE3) RIL; YPEL5–WDR26ΔCTLH: Trichoplusia ni High Five insect cells
Text: The potency of the degraders was expressed as the EC50 estimated by nonlinear regression using a four-parameter [agonist] versus response model.

BRD4 = target: T3, BRD4 (Homo sapiens, UniProt O60885); assay: HiBiT–BRD4 assay (endogenous BRD4 protein levels); type: cell-based
T3 construct: Endogenous BRD4 protein levels were evaluated using the Nano-Glo HiBiT lytic detection system; endogenous in cells; host or cells: Jurkat (HiBiT knock-in; some series in YPEL5-/- cells re-expressing WT or mutant YPEL5-FLAG)
Protocol: Introduction of a HiBiT coding sequence into the endogenous BRD4 locus in Jurkat cells was achieved using CRISPR–Cas9 genome editing. Alt-R CRISPR RNA (crRNA) and trans-activating crRNA (tracrRNA) (Integrated DNA Technologies) were resuspended in nuclease-free duplex buffer (Integrated DNA Technologies) at a concentration of 200 µM each. Equal volumes of crRNA and tracrRNA were mixed (final concentration of 100 µM each) and heated for 5 min at 95 °C. After heating, the complex was gradually cooled to room temperature. The oligo complex was then incubated at room temperature for 20 min with the Alt-R Cas9 nuclease V3 (Integrated DNA Technologies) to form the ribonucleoprotein (RNP) complex. The double-stranded DNA homology-directed repair (HDR) template (HiBiT–BRD4 with extensions, shown below), the RNP complex and an electroporation enhancer (Integrated DNA Technologies) were then electroporated into Jurkat cells using an Amaxa 4D-Nucleofector (Lonza). Electroporated cells were transferred to medium with HRD enhancer (Integrated DNA Technologies). Single cells were subsequently isolated by fluorescence-activated cell sorting and HiBiT expression from individual clones was detected with the Nano-Glo HiBiT lytic detection system (Promega). Sequences for the crRNA and HDR donor are provided below.
Endogenous BRD4 protein levels were evaluated using the Nano-Glo HiBiT lytic detection system (Promega). In brief, 1.5 × 10^4 HiBiT–BRD4 Jurkat cells were seeded into 384-well plates and incubated with the indicated concentrations of compounds. After 5 h, the plates were subjected to a Nano-Glo HiBiT lytic detection system as described in the manufacturer’s manual. The HiBiT–BRD4 assays were conducted in biological triplicates.

YPEL5 = target: T4, YPEL5 (Homo sapiens, UniProt P62699); assay: Octet BLI, binary affinity of degrader for YPEL5 (no BRD4BD1); type: binding; conditions: absence of BRD4BD1
T4 construct: made in house; host or cells: Trichoplusia ni High Five insect cells
Protocol: To quantify interactions between the degrader-bound neosubstrates and the CTLH E3 neosubstrate receptor module, we determined the KD using Octet BLI.
For each measurement, one of the loaded sensors was dipped in the reference solution containing 0 or 5 μM degrader in the BLI binding buffer (in the absence of the analyte protein). The reference response values were subtracted from the responses elicited by all the neosubstrate-containing solutions before data analysis. All BLI experiments were carried out at 20 °C using the eight-channel Octet R8 system (Sartorius). Concentrated proteins and compounds were diluted in the BLI binding buffer composed of 25 mM HEPES pH 7.5, 150 mM NaCl, 1 mM DTT and 0.05% Tween-20.
The raw data were processed with Octet analysis software (Sartorius) by applying a global fitting with linked Rmax values (assuming a 1:1 binding model). […] KD was estimated by nonlinear regression using the one-site binding model.

Microsome stability, MLM = type: in vitro ADME; conditions: mouse, liver microsomes; for half-life: read-out: MLM Stability (T1/2 min)
Microsome stability, HLM = type: in vitro ADME; conditions: human, liver microsomes; for half-life: read-out: HLM Stability (T1/2 min)
BRD4BD1 = target: T5, BRD4BD1 (Homo sapiens, UniProt O60885); assay: cell-based; type: cell-based; conditions: K562, 16 h
T5 construct: host or cells: K562-Cas9
Protocol: Reporter cell lines were generated as described previously.
(§1) Then, 50 µl of cell suspension was seeded in 384-well plates and immediately treated with DMSO or drug for 16 h. The indicated drugs were dispensed with a D300 digital dispenser (Tecan Genomics). The fluorescence signal was quantified by flow cytometry (FACSymphony flow cytometer, BD Biosciences). Using FlowJo (flow cytometry analysis software, BD Biosciences), the geometric mean of the eGFP and mCherry fluorescent signal for round and mCherry-positive cells was calculated. The ratio of eGFP to mCherry was normalized to the average of ten DMSO-treated controls.

GSH chemical stability = type: physicochemical; conditions: for half-life: GSH chemical stability; for remaining at 5 min / remaining at […] / remaining at 0.5 h / remaining at 1 h / remaining at 2 h: GSH; for remaining at […]: 15 min; for remaining at 0.5 h: 30 min; for remaining at 1 h: 60 min; for remaining at 2 h: 120 min
Text: Afatinib Time Peak Area %Remaining Ln T1/2
(Ctrl) (min) Ratio (%remaining) (min)
(min) Ratio (%remaining) (min)

BRD4BD2 = target: T6, BRD4BD2 (Homo sapiens, UniProt O60885); assay: BRD4 reporter stability analysis, BRD4BD2–eGFP (K562-Cas9, flow cytometry); type: cell-based; conditions: for DC50: BRD4BD2 reporter, K562, 16 h; for Dmax: K562
T6 construct: host or cells: K562-Cas9
Protocol: (§2) The Cilantro 2 reporter vector (PGK.BsmBICloneSite-10aaFlexibleLinker-eGFP.IRES.mCherry. cppt.EF1α.PuroR; Addgene, 74450) was used for flow-based degradation assays. […] Reporter cell lines were generated as described previously.
as §1

[2] = system: FAM–BRD4BD1 + YPEL5–WDR26; assay: Real-time FP monitoring the rate of ternary complex formation; type: binding, human; conditions: in vitro, DTT-containing buffer
Protocol: Here, the concentration of DTT in the binding buffer used for preparing the tracer–E3 ligase mixture varied from 0.1 to 5 mM.

BRD2BD1 = target: T7, BRD2BD1 (Homo sapiens, UniProt P25440); assay: Cellular fluorescent reporter assay, BRD2 BD1; type: cell-based
T7 construct: Cellular fluorescent reporter assay testing ZZ1-induced degradation of BRD2 and BRD3 BD1 bromodomains; expressed in transfected cells
Protocol: as §1

BRD3BD1 = target: T8, BRD3BD1 (Homo sapiens, UniProt Q15059); assay: Cellular fluorescent reporter assay, BRD3 BD1; type: cell-based
T8 construct: Cellular fluorescent reporter assay testing ZZ1-induced degradation of BRD2 and BRD3 BD1 bromodomains; expressed in transfected cells
Protocol: as §1

Plasma stability, human = type: in vitro ADME; conditions: read-out: Plasma Stability (T1/2 min)
Plasma stability, mouse = type: in vitro ADME; conditions: read-out: Plasma Stability (T1/2 min)
BRD2, BRD3, BRD4 = assay: Western blotting of BET protein degradation; type: cell-based, human; conditions: immunoblotting (and proteome-wide MS)
Protocol: Total cells lysates were prepared in 2× sample loading buffer (that is, 250 mM Tris-HCl pH 6.8, 4% SDS, 10% glycerol, 0.006% bromophenol blue, 2% β-mercaptoethanol, 50 mM sodium fluoride and 5 mM sodium orthovanadate). The samples with cell lysates were boiled for 5–8 min at 95 °C. The protein concentrations of the cell lysates were quantified using the BCA method and a BCA protein assay kit (Thermo Fisher Scientific). […] After washing the membranes with PBS for 30 min, the membranes were detected on a Li-COR Odyssey CLx system.

BRD4BD1+BD2 = target: T9, BRD4BD1+BD2 (Homo sapiens, UniProt O60885); assay: BRD4 reporter stability analysis, BRD4BD1+BD2–eGFP (K562-Cas9, flow cytometry); type: cell-based; conditions: K562, 16 h
T9 construct: host or cells: K562-Cas9
Protocol: as §2, §1

[3] = system: ternary complex of *BRD4BD1, ZZ1-SO2H and YPEL5-WDR26; assay: Competitive FP disrupting the ternary complex; type: binding, human
Text: The four-parameter [inhibitor] versus response model was applied to estimate the IC50.

T8 sequence (Q15059 34-140 limits assumed): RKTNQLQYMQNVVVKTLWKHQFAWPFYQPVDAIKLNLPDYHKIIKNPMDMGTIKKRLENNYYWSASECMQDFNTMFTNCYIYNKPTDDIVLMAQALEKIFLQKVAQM
T7 sequence (P25440 74-180 limits assumed): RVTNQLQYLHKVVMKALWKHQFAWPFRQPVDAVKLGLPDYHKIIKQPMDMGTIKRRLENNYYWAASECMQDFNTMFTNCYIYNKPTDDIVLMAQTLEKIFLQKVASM
T4 sequence (P62699 2-121): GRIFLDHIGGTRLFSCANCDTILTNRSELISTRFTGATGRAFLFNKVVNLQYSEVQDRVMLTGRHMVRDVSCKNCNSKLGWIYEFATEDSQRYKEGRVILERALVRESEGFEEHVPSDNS

Compound: Cc1sc2c(c1C)C(c1ccc(NC(=O)c3ccc(S(=O)O)c(Cl)c3)cc1)=N[C@@H](CC(=O)OC(C)(C)C)c1nnc(C)n1-2 [ZZ1-SO2H]
- BRD4BD1 ubiquitylation in vitro (*BRD4BD1 / YPEL5-CTLH E3): promoted robust BRD4BD1 ubiquitylation
- EC50 [1]: 60 nM and ~60 nM and 74 nM
- activity in cellular assays (BRD4): inactive
- affinity between degrader and YPEL5 by BLI (YPEL5): did not observe measurable affinity

Compound: CCN(CC)CCNC(=O)c1c(C)[nH]c(/C=C2\C(=O)Nc3ccc(F)cc32)c1C [Sunitinib, reference compound]
- microsomal CLint (Microsome stability, MLM): 38 µL/min/mg
- half-life (Microsome stability, MLM): 36.5 min
- microsomal CLint (Microsome stability, HLM): 32 µL/min/mg
- half-life (Microsome stability, HLM): 43.5 min

Compound: Cc1sc2c(c1C)C(c1ccc(NC(=O)c3cc(Cl)c(S(=O)(=O)F)c(Cl)c3)cc1)=N[C@@H](CC(=O)OC(C)(C)C)c1nnc(C)n1-2 [ZZ2]
- DC50 (BRD4BD1; BRD4BD1 reporter): 91 ± 8.8 nM
- Dmax (BRD4BD1; K562, BRD4BD1 reporter): 81%
- half-life (GSH chemical stability; buffer): < 5 min
- remaining at 5 min (GSH chemical stability; buffer): 9.27%
- remaining at […] (GSH chemical stability; buffer): 4.72%
- remaining at 0.5 h (GSH chemical stability; buffer): 0%
- remaining at 1 h (GSH chemical stability; buffer): 0%
- remaining at 2 h (GSH chemical stability; buffer): 0%
- DC50 (BRD4BD2): 198 ± 75.5 nM
- Dmax (BRD4BD2): 31%
- rate of ternary complex formation [2]: much faster rate
- DC50 (BRD2BD1): 46.4 ± 6.6 nM
- Dmax (BRD2BD1): 76%
- DC50 (BRD3BD1): 21.1 ± 3.1 nM
- Dmax (BRD3BD1): 82%
- half-life (Plasma stability, human): 14 min
- microsomal CLint (Microsome stability, MLM): 741 µL/min/mg
- half-life (Microsome stability, MLM): 1.9 min
- DC50 (BRD4; Jurkat cells, 5 h): 169 nM
- half-life (Plasma stability, mouse): 7 min
- microsomal CLint (Microsome stability, HLM): 670 µL/min/mg
- half-life (Microsome stability, HLM): 2.1 min

Compound: Cc1sc2c(c1C)C(c1ccc(NC(=O)c3ccc(S(=O)(=O)F)c(Cl)c3)cc1)=N[C@@H](CC(=O)OC(C)(C)C)c1nnc(C)n1-2 [ZZ1]
- BET protein degradation (BRD2, BRD3, BRD4): induced selective degradation of BET proteins (BRD3, BRD4 and, to a lesser extent, BRD2); also recorded: especially potent in the Ewing sarcoma TC-71 cell line
- DC50 (BRD4BD1; BRD4BD1 reporter): 126 nM and 128 nM
- Dmax (BRD4BD1; BRD4BD1 reporter): 88%
- Dmax (BRD4BD1; K562, BRD4BD1 reporter): 69%
- half-life (GSH chemical stability; buffer): < 5 min
- remaining at 5 min (GSH chemical stability; buffer): 26.7%
- remaining at […] (GSH chemical stability; buffer): 9.36%
- remaining at 0.5 h (GSH chemical stability; buffer): 3.21%
- remaining at 1 h (GSH chemical stability; buffer): 3.12%
- remaining at 2 h (GSH chemical stability; buffer): 2.27%
- DC50 (BRD4BD2): 532 ± 80.2 nM
- Dmax (BRD4BD2): 40%
- DC50 (BRD4BD1+BD2): 75 ± 16.4 nM
- Dmax (BRD4BD1+BD2): 80%
- rate of ternary complex formation [2]: induced ternary complex formation slowly
- DC50 (BRD2BD1): 70.1 ± 3.6 nM
- Dmax (BRD2BD1): 63%
- DC50 (BRD3BD1): 33.5 ± 5.4 nM
- Dmax (BRD3BD1): 73%
- half-life (Plasma stability, human): 45 min
- microsomal CLint (Microsome stability, MLM): 254 µL/min/mg
- half-life (Microsome stability, MLM): 5.5 min
- Dmax (BRD4; Jurkat): 82%
- DC50 (BRD4; Jurkat cells pretreated with MG132 for 1 h, then ZZ1 5 h): > 20000 nM
- DC50 (BRD4; Jurkat cells pretreated with MLN-4924 for 1 h, then ZZ1 5 h): 1400 ± 130 nM
- DC50 (BRD4; Jurkat cells, 5 h): 502 nM and 489 nM
- DC50 (BRD4; Jurkat, 5 h, cells pretreated with 100 μM GSH for 2 h): 152 ± 19 nM
- DC50 (BRD4; Jurkat, 5 h, no GSH pre-treatment): 237 ± 20 nM
- DC50 (BRD4; WT YPEL5-expressing Jurkat cells, 5 h): 168 ± 15 nM
- DC50 (BRD4; YPEL5 L62A-expressing Jurkat cells, 5 h): 841 ± 137 nM
- DC50 (BRD4; YPEL5 R41A-expressing Jurkat cells, 5 h): 719 ± 102 nM
- DC50 (BRD4; YPEL5 T36A-expressing Jurkat cells, 5 h): 971 ± 176 nM
- half-life (Plasma stability, mouse): 57 min
- microsomal CLint (Microsome stability, HLM): 195 µL/min/mg
- half-life (Microsome stability, HLM): 7.1 min

Compound: CN(C)C/C=C/C(=O)Nc1cc2c(Nc3ccc(F)c(Cl)c3)ncnc2cc1O[C@H]1CCOC1 [Afatinib, reference compound]
- half-life (GSH chemical stability; glutathione (GSH) solution): 25.2 min
- remaining at 5 min (GSH chemical stability; glutathione (GSH) solution): 82.1%
- remaining at […] (GSH chemical stability; glutathione (GSH) solution): 48.1%
- remaining at 0.5 h (GSH chemical stability; glutathione (GSH) solution): 27.6%
- remaining at 1 h (GSH chemical stability; glutathione (GSH) solution): 13.8%
- remaining at 2 h (GSH chemical stability; glutathione (GSH) solution): 3.43%

Compound: Cc1sc2c(c1C)C(c1ccc(Cl)cc1)=N[C@@H](CC(=O)OC(C)(C)C)c1nnc(C)n1-2 [JQ1, reference compound]
- disruption of the ternary complex [3]: could disrupt the ternary complex

Compound: Cc1sc2c(c1C)C(c1ccc(NC(=O)c3ccc(S(=O)(=O)O)c(Cl)c3)cc1)=N[C@@H](CC(=O)OC(C)(C)C)c1nnc(C)n1-2 [ZZ1-SO3H]
- BRD4BD1 ubiquitylation in vitro (*BRD4BD1 / YPEL5-CTLH E3): promoted robust BRD4BD1 ubiquitylation
- activity in cellular assays (BRD4): inactive

Compound: Cc1sc2c(c1C)C(c1ccc(NC(=O)c3cc(Cl)c(S(=O)O)c(Cl)c3)cc1)=N[C@@H](CC(=O)OC(C)(C)C)c1nnc(C)n1-2 [ZZ2-SO2H, 4-((4-((S)-6-(2-(tert-butoxy)-2-oxoethyl)-2,3,9-trimethyl-6H-thieno[3,2-f][1,2,4]triazolo[4,3-a][1,4]diazepin-4-yl)phenyl)carbamoyl)-2,6-dichlorobenzenesulfinic acid]
- BRD4BD1 ubiquitylation in vitro (*BRD4BD1 / YPEL5-CTLH E3): promotes more robust BRD4BD1 ubiquitylation
- EC50 [1]: < 74 nM
